Laboratory results from ChEMBL document CHEMBL3797180, “Squaramides with cytotoxic activity against human gastric carcinoma cells HGC-27: synthesis and mechanism of action” (Medchemcomm, 2016).
pIC50: −log10 of the molar value. Active and inactive are the calls of the source. The rule behind the calls is not given here.

Assays:
HeLa [1] = assay: Cytotoxicity against human HeLa cells assessed as inhibition of cell viability at 100 uM after 24 hrs by MTT assay; format: functional, cell-based
HeLa [2] = assay: Cytotoxicity against human HeLa cells assessed as inhibition of cell viability at 20 uM after 24 hrs by MTT assay; format: functional, cell-based
[3] = (§1) Cytotoxicity against HGC27 cells after 24 hrs by MTT assay; format: functional, cell-based; details: Homo sapiens, HGC-27, 24 h
HGC-27 [4] = assay: as §1; format: functional, cell-based; details: Homo sapiens
HeLa [5] = assay: Cytotoxicity against human HeLa cells after 24 hrs by MTT assay; format: functional, cell-based
[6] = Cytotoxicity against HGC27 cells after 48 hrs by MTT assay; format: functional, cell-based; details: Homo sapiens, HGC-27, 48 h
[7] = Cytotoxicity against human T98 cells by MTT assay; format: functional, cell-based
[8] = Cytotoxicity against human U87 cells by MTT assay; format: functional, cell-based, U-87MG ATCC; details: U-87 MG
HEK293 = assay: Cytotoxicity against HEK293 cells by MTT assay; format: cell-based; details: Homo sapiens
MDCK [9] = assay: Cytotoxicity against MDCK cells by MTT assay; format: cell-based; details: Canis lupus familiaris
Vero [10] = assay: Cytotoxicity against African green monkey Vero cells by MTT assay; format: cell-based; details: Chlorocebus sabaeus
[11] = Cell cycle arrest in HGC27 cells assessed as accumulation at G0/G1 phase after 24 hrs at 5 uM by propidium idoide staining based flow cytometric analysis; format: functional; details: Homo sapiens, HGC-27
[12] = Cell cycle arrest in HGC27 cells assessed as decrease in S-phase population after 24 hrs at 5 uM by propidium idoide staining based flow cytometric analysis; format: functional; details: Homo sapiens, HGC-27
[13] = Cell cycle arrest in HGC27 cells assessed as decrease in G2/M phase population after 24 hrs at 5 uM by propidium idoide staining based flow cytometric analysis; format: functional; details: Homo sapiens, HGC-27
[14] = Cell cycle arrest in HGC27 cells assessed as accumulation at G2/GM phase after 24 hrs at 500 nM by propidium idoide staining based flow cytometric analysis; format: functional; details: Homo sapiens, HGC-27
HGC-27 [15] = assay: Induction of apoptosis in HGC27 cells assessed as apoptotic cells after 24 hrs by Annexin-V-FITC/propidium iodide staining-based flow cytometry; format: functional, cell-based; details: Homo sapiens
HGC-27 [16] = assay: Induction of apoptosis in HGC27 cells assessed as apoptotic cells at 1 uM after 24 hrs by Annexin-V-FITC/propidium iodide staining-based flow cytometry (reference value: 6.7%); format: functional, Homo sapiens
HGC-27 [17] = assay: Induction of apoptosis in HGC27 cells assessed as apoptotic cells at 2.5 uM after 24 hrs by Annexin-V-FITC/propidium iodide staining-based flow cytometry (reference value: 6.7%); format: functional, Homo sapiens
HGC-27 [18] = assay: Induction of apoptosis in HGC27 cells assessed as apoptotic cells at 8 uM after 24 hrs by Annexin-V-FITC/propidium iodide staining-based flow cytometry (reference value: 6.7%); format: functional, Homo sapiens
[19] = Cytotoxicity against HGC27 cells assessed as cellular ATP level after 24 hrs by SRB assay; format: functional, cell-based; details: Homo sapiens, HGC-27, 24 h
MDCK [20] = assay: Cytotoxicity against MDCK cells assessed as cellular ATP level after 24 hrs by SRB assay; format: cell-based; details: Canis lupus familiaris
Vero [21] = assay: Cytotoxicity against African green monkey Vero cells assessed as cellular ATP level after 24 hrs by SRB assay; format: cell-based; details: Chlorocebus sabaeus
HGC-27 [22] = assay: Induction of apoptosis in HGC27 cells at 8 uM after 24 hrs in presence of pan-caspase inhibitor Z-VAD-FMK by Annexin-V-FITC/propidium iodide staining-based flow cytometry; format: functional, cell-based; details: Homo sapiens
HGC-27 [23] = assay: Induction of apoptosis in HGC27 cells at 8 uM after 24 hrs in presence of caspase 8 inhibitor Z-IETD-FMK by Annexin-V-FITC/propidium iodide staining-based flow cytometry; format: functional, cell-based; details: Homo sapiens
HGC-27 [24] = assay: Induction of apoptosis in HGC27 cells at 8 uM after 24 hrs in presence of caspase 9 inhibitor Z-LEHD-FMK by Annexin-V-FITC/propidium iodide staining-based flow cytometry; format: functional, cell-based; details: Homo sapiens
HGC-27 [25] = assay: Induction of apoptosis in HGC27 cells at 8 uM after 24 hrs in presence of cathepsin-B inhibitor-3 by Annexin-V-FITC/propidium iodide staining-based flow cytometry; format: functional, cell-based; details: Homo sapiens
HGC-27 [26] = assay: Induction of apoptosis in HGC27 cells assessed as necrotic cells at 8 uM after 24 hrs in presence of cathepsin-B inhibitor-3 by Annexin-V-FITC/propidium iodide staining-based flow cytometry; format: functional, cell-based; details: Homo sapiens
HGC-27 [27] = assay: Induction of apoptosis in HGC27 cells assessed as necrotic cells at 8 uM after 24 hrs in presence of RIP1 inhibitor necrostatin-1 by Annexin-V-FITC/propidium iodide staining-based flow cytometry; format: functional, cell-based; details: Homo sapiens
HGC-27 [28] = assay: Induction of autophagy in HGC27 cells assessed as increase in LC3-2 level after 24 hrs by Western blotting method; format: functional, cell-based; details: Homo sapiens
HGC-27 [29] = assay: Induction of apoptosis in HGC27 cells at 2 uM co-treated with autophagy inhibitor chloroquine after 24 hrs by Annexin-V-FITC/propidium iodide staining-based flow cytometry; format: functional, cell-based; details: Homo sapiens
HGC-27 [30] = assay: Induction of apoptosis in HGC27 cells at 2 uM co-treated with autophagy inhibitor 3-MA after 24 hrs by Annexin-V-FITC/propidium iodide staining-based flow cytometry; format: functional, cell-based; details: Homo sapiens
HGC-27 [31] = assay: Induction of apoptosis in HGC27 cells assessed as increase in necrotic cells at 2 uM co-treated with autophagy inhibitor chloroquine after 24 hrs by Annexin-V-FITC/propidium iodide staining-based flow cytometry; format: functional, cell-based; details: Homo sapiens
HGC-27 [32] = assay: Induction of apoptosis in HGC27 cells assessed as increase in necrotic cells at 2 uM co-treated with autophagy inhibitor 3-MA after 24 hrs by Annexin-V-FITC/propidium iodide staining-based flow cytometry; format: functional, cell-based; details: Homo sapiens
HGC-27 [33] = assay: Induction of apoptosis in HGC27 cells assessed as reduction in mitochondrial membrane potential at 2 and 8 uM after 24 hrs by JC-1 staining based flow cytometric analysis; format: functional, cell-based; details: Homo sapiens
HGC-27 [34] = assay: Induction of reactive oxygen species formation in HGC27 cells at 1.4 to 24 uM after 5 hrs using DCFH-DA probe by spectrofluorimetry; format: functional, cell-based; details: Homo sapiens
HGC-27 [35] = assay: Induction of autophagy in HGC27 cells assessed as increase in LC3-2 level after 24 hrs by Western blotting method in presence of lysosomal dysfunction inducer PI; format: functional, cell-based; details: Homo sapiens

O=c1c(Nc2cc(C(F)(F)F)cc(C(F)(F)F)c2)c(N[C@@H](c2ccccc2)C(O)(c2ccccc2)c2ccccc2)c1=O
inhibition (HeLa [1]): Active
inhibition (HeLa [2]): Active
pIC50 [3]: 5.74
Activity (HGC-27 [4]): Dose-dependent effect
pIC50 (HeLa [5]): 4.46
pIC50 [6]: 6.18
pIC50 [7]: 5.15
pIC50 [8]: 4.22
pIC50 (HEK293): 5.04
pIC50 (MDCK [9]): 4.15
pIC50 (Vero [10]): 4.48
Activity [11]: Active
Activity [12]: Active
Activity [13]: Active
Activity [14]: Active
Activity (HGC-27 [15]): Dose-dependent effect
Activity (HGC-27 [16]): 2.4%
Activity (HGC-27 [17]): 24.7%
Activity (HGC-27 [18]): 60.1%
pIC50 [19]: 5.01
pIC50 (MDCK [20]): 3.83
pIC50 (Vero [21]): 4.13
Activity (HGC-27 [22]): Active
Activity (HGC-27 [23]): Active
Activity (HGC-27 [24]): inactive
Activity (HGC-27 [25]): Active
Activity (HGC-27 [26]): Active
Activity (HGC-27 [27]): Active
Activity (HGC-27 [28]): Active
Activity (HGC-27 [29]): Active
Activity (HGC-27 [30]): Active
Activity (HGC-27 [31]): Active
Activity (HGC-27 [32]): Active
Activity (HGC-27 [33]): Active
Activity (HGC-27 [34]): inactive
Activity (HGC-27 [35]): Active
